Experimental data published in article PMC6576746, “Rational discovery of dual-indication multi-target PDE/Kinase inhibitor for precision anti-cancer therapy using structural systems pharmacology” (PLoS Computational Biology, 2019).

Experiments:
[1] = biological target: T1, RIOK1 (serine/threonine-protein kinase RIOK1) (Homo sapiens, UniProt Q9BRS2); assay: KinomeScan competition binding assay, dose-response; conditions: DiscoverX; Hill equation fit
T1 construct: DiscoverX KinomeScan panel kinase

ABL1-nonphosphorylated = biological target: T2, ABL1-nonphosphorylated (Homo sapiens, UniProt P00519); assay: biochemical; design: DiscoverX KinomeScan competition binding assay across human kinases; per cent of control at 10 and 100 uM; conditions: competition binding, % of control
T2 construct: nonphosphorylated
Procedure: (§1) To validate our computational predictions, we employed a competition binding assay to detect the binding of levosimendan to 425 human kinases as well as its dose-response curve to RIOK1. The proprietary KinomeScan assay was performed by DiscoverX (Fremont, California, USA). The tests were performed at 10 μM and 100 μM concentrations of levosimendan, respectively. Assay results were reported as %control, calculated as follows: %control=(TestCompoundSignal−PositiveControlSignal)/(NegativeControlSignal−PositiveControlSignal)×100 KinomeScan assay across 452 human kinases verified our computational prediction (S1 Table). RIOK1 is one of the strongest inhibited kinases by levosimendan. The percentage control of RIOK1 is 15.0 and 0.0 under the treatment of 10 μM and 100 μM of levosimendan, respectively. […] The percentage controls of five kinases: FLT3, MAP2K5, PIP5K1A, GAK, and KIT are less than 30.0 under the treatment of both 10 μM and 100 μM of levosimendan. Both FLT3 and KIT are tyrosine protein kinases. Their inhibitors have recently been approved for the treatment of Acute Myeloid Leukemia and other types of cancers, but a combination therapy is needed to overcome rapidly emerged drug resistance, thus improve patients’ drug responses. Other kinases inhibited by levosimendan belong to serine/threonine protein kinase family (RIOK1, RIOK3, GAK, and MAP2K5) and lipid kinase family (PIP5K1A). […] As a result, levosimendan may modulate different cancer pathways from those by the tyrosine protein kinase inhibitors, and it could be a novel lead compound for a new anti-cancer therapy to overcome drug resistance of existing drugs or to target different types of cancers through polypharmacology or drug combination.

BRSK1 = BRSK1 (Homo sapiens, UniProt Q8TDC3); assay: biochemical; design: DiscoverX KinomeScan competition binding assay across human kinases; per cent of control at 10 and 100 uM; conditions: competition binding, % of control; read-out: Percent Control (100 uM Levosimendan)
Procedure: as §1

CLK2 = CLK2 (Homo sapiens, UniProt P49760); assay: biochemical; design: DiscoverX KinomeScan competition binding assay across human kinases; per cent of control at 10 and 100 uM; conditions: competition binding, % of control; read-out: Percent Control (100 uM Levosimendan)
Procedure: as §1

DMPK2 = biological target: T3, DMPK2 (Homo sapiens, UniProt Q6DT37); assay: biochemical; design: DiscoverX KinomeScan competition binding assay across human kinases; per cent of control at 10 and 100 uM; conditions: competition binding, % of control; read-out: Percent Control (100 uM Levosimendan)
T3 construct: gene CDC42BPG
Procedure: as §1

EPHA1 = EPHA1 (Homo sapiens, UniProt P21709); assay: biochemical; design: DiscoverX KinomeScan competition binding assay across human kinases; per cent of control at 10 and 100 uM; conditions: competition binding, % of control; read-out: Percent Control (100 uM Levosimendan)
Procedure: as §1

EPHB3 = EPHB3 (Homo sapiens, UniProt P54753); assay: biochemical; design: DiscoverX KinomeScan competition binding assay across human kinases; per cent of control at 10 and 100 uM; conditions: competition binding, % of control; read-out: Percent Control (100 uM Levosimendan)
Procedure: as §1

GRK1 = GRK1 (Homo sapiens, UniProt Q15835); assay: biochemical; design: DiscoverX KinomeScan competition binding assay across human kinases; per cent of control at 10 and 100 uM; conditions: competition binding, % of control; read-out: Percent Control (100 uM Levosimendan)
Procedure: as §1

GSK3A = GSK3A (Homo sapiens, UniProt P49840); assay: biochemical; design: DiscoverX KinomeScan competition binding assay across human kinases; per cent of control at 10 and 100 uM; conditions: competition binding, % of control; read-out: Percent Control (100 uM Levosimendan)
Procedure: as §1

MARK2 = MARK2 (Homo sapiens, UniProt Q7KZI7); assay: biochemical; design: DiscoverX KinomeScan competition binding assay across human kinases; per cent of control at 10 and 100 uM; conditions: competition binding, % of control; read-out: Percent Control (100 uM Levosimendan)
Procedure: as §1

NEK1 = NEK1 (Homo sapiens, UniProt Q96PY6); assay: biochemical; design: DiscoverX KinomeScan competition binding assay across human kinases; per cent of control at 10 and 100 uM; conditions: competition binding, % of control; read-out: Percent Control (100 uM Levosimendan)
Procedure: as §1

ROCK2 = ROCK2 (Homo sapiens, UniProt O75116); assay: biochemical; design: DiscoverX KinomeScan competition binding assay across human kinases; per cent of control at 10 and 100 uM; conditions: competition binding, % of control
Procedure: as §1

STK16 = STK16 (Homo sapiens, UniProt O75716); assay: biochemical; design: DiscoverX KinomeScan competition binding assay across human kinases; per cent of control at 10 and 100 uM; conditions: competition binding, % of control; read-out: Percent Control (100 uM Levosimendan)
Procedure: as §1

TEC = TEC (Homo sapiens, UniProt P42680); assay: biochemical; design: DiscoverX KinomeScan competition binding assay across human kinases; per cent of control at 10 and 100 uM; conditions: competition binding, % of control; read-out: Percent Control (100 uM Levosimendan)
Procedure: as §1

KIT = KIT (Homo sapiens, UniProt P10721); assay: KinomeScan competition binding assay; design: DiscoverX KinomeScan panel kinase; conditions: 10 μM levosimendan
RIOK3 = biological target: T4, RIOK3 (Homo sapiens, UniProt O14730); assay: KinomeScan competition binding assay; design: DiscoverX KinomeScan panel kinase; conditions: 10 μM and 100 μM levosimendan
T4 sequence (O14730 1-519): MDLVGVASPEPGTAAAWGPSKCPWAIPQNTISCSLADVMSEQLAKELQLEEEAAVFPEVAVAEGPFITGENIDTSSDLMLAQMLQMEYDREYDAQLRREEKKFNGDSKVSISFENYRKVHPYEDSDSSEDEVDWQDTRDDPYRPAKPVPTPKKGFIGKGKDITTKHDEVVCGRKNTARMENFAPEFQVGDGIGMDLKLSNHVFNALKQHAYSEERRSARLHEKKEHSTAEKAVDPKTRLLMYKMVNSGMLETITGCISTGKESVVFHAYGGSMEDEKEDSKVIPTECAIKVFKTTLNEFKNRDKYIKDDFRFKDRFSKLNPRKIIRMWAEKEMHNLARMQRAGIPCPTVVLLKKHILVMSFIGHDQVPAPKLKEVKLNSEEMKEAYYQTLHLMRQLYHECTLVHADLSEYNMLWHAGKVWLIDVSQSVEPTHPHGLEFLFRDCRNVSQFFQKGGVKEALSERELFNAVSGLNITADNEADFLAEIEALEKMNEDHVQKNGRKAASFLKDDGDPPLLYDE

[2] = read-out: Percent Control (10 uM Levosimendan)
[3] = read-out: Percent Control (100 uM Levosimendan)

T2 sequence (P00519 whole entry): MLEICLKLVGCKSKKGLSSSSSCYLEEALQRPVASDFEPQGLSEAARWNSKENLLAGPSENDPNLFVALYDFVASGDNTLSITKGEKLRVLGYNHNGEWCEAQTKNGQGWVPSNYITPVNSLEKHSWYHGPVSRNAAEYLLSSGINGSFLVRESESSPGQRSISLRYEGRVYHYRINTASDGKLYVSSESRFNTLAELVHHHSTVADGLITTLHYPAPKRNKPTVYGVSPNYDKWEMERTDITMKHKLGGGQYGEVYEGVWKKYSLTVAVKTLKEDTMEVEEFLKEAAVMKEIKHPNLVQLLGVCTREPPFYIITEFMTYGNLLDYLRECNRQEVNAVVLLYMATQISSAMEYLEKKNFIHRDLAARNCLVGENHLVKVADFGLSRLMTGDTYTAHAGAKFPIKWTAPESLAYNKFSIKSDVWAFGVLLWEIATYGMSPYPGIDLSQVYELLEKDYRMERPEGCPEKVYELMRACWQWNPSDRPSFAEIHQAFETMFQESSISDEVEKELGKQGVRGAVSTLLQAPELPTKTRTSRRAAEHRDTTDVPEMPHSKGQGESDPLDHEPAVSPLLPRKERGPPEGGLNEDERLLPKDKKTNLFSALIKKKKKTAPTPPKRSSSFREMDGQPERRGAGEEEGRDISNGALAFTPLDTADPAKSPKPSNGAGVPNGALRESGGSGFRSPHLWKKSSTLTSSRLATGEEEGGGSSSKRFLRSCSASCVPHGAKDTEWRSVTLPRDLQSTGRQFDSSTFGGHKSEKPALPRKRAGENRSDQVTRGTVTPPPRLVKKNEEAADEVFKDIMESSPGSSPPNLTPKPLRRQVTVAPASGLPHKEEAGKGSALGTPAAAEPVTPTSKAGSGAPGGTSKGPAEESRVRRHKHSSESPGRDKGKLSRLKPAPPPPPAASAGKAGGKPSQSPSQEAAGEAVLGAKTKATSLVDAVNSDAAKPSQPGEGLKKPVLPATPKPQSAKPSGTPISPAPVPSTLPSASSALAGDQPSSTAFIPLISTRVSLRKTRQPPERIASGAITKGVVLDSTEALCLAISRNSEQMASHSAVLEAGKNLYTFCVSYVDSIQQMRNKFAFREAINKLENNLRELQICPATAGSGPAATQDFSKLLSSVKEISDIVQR
Sequence of ROCK2 (O75116 whole entry): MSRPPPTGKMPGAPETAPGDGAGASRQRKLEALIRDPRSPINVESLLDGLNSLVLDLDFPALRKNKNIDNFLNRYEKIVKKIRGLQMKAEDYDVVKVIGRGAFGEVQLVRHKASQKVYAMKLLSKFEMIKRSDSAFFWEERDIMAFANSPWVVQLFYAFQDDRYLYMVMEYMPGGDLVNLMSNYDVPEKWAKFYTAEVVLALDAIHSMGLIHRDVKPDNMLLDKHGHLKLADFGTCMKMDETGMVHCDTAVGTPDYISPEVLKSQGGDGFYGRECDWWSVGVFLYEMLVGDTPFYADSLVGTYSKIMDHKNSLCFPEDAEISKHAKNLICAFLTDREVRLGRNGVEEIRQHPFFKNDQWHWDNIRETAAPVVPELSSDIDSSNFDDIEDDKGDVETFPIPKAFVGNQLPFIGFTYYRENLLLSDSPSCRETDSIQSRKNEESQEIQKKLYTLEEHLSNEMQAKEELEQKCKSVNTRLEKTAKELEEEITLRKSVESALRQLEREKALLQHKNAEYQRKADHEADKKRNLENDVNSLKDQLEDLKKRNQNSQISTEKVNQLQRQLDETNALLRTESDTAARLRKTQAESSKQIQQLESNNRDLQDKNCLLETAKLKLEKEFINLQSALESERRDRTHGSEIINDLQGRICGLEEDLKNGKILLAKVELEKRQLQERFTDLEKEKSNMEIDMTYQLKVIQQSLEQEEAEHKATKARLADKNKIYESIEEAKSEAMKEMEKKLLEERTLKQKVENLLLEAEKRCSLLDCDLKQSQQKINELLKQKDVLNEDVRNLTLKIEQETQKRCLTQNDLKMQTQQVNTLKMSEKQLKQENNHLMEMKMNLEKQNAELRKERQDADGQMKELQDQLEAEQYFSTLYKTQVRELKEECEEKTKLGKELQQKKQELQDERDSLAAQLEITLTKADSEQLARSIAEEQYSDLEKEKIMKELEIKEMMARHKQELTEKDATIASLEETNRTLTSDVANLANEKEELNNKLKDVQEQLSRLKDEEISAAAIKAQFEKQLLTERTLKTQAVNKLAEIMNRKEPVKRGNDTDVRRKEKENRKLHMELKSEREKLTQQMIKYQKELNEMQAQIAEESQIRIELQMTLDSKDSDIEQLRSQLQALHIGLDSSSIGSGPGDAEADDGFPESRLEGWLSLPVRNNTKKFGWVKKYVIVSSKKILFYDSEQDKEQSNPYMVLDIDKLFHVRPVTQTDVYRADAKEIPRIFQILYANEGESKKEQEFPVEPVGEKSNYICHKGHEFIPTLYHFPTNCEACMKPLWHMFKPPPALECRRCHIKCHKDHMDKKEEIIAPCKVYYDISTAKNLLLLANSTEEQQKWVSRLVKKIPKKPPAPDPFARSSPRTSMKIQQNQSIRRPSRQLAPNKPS
Sequence of CLK2 (P49760 whole entry): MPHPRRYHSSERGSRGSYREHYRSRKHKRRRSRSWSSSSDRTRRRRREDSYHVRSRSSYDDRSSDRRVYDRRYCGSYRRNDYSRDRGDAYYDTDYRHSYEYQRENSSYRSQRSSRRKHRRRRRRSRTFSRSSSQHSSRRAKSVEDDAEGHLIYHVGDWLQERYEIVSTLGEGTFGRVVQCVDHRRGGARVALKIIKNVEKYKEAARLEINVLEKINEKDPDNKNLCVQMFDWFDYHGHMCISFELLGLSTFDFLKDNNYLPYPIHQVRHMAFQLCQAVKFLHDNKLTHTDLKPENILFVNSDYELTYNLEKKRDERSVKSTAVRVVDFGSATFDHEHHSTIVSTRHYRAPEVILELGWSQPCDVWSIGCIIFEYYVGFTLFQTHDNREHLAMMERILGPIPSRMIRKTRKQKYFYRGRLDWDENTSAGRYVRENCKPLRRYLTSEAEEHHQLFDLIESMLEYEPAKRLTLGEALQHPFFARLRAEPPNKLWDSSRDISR
Sequence of EPHA1 (P21709 whole entry): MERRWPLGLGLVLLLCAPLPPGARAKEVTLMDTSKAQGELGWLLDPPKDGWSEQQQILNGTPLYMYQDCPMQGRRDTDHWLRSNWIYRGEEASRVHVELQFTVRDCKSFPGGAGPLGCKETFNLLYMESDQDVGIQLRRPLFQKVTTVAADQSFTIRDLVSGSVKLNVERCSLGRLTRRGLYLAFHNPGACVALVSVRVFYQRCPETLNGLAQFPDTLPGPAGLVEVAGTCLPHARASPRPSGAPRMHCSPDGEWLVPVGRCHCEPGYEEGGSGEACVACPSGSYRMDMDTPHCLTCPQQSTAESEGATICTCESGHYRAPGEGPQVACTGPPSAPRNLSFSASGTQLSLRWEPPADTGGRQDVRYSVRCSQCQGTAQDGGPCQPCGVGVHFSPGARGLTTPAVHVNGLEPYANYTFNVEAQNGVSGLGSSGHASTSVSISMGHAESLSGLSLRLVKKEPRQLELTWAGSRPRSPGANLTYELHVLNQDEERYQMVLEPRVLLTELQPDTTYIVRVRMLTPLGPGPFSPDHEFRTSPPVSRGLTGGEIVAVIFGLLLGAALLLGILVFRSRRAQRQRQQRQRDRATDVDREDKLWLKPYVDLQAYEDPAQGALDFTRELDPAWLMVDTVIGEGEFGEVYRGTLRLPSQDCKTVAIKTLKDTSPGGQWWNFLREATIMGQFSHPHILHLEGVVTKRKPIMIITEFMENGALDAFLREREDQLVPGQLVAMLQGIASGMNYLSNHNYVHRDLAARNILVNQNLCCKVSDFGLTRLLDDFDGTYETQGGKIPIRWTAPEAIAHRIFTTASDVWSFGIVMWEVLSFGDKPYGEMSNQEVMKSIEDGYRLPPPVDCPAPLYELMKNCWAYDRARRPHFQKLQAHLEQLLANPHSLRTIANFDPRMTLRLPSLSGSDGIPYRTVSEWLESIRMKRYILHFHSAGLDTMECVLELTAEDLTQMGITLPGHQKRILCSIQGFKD
Sequence of GRK1 (Q15835 whole entry): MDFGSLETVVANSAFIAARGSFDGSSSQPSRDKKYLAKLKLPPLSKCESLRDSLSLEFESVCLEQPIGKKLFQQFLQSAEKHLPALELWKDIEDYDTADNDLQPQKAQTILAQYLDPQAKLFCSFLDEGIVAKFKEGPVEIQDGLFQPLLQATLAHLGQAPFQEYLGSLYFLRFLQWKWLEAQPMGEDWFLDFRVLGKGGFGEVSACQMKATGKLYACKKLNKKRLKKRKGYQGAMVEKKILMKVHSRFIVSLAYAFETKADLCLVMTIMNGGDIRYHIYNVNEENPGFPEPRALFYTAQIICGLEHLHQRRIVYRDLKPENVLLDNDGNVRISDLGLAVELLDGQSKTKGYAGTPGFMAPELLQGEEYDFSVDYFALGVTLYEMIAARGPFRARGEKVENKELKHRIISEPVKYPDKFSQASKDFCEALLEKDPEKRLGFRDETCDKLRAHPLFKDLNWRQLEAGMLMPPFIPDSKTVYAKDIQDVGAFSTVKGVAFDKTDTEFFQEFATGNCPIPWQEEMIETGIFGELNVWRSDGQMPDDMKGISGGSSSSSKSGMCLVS
Sequence of GSK3A (P49840 whole entry): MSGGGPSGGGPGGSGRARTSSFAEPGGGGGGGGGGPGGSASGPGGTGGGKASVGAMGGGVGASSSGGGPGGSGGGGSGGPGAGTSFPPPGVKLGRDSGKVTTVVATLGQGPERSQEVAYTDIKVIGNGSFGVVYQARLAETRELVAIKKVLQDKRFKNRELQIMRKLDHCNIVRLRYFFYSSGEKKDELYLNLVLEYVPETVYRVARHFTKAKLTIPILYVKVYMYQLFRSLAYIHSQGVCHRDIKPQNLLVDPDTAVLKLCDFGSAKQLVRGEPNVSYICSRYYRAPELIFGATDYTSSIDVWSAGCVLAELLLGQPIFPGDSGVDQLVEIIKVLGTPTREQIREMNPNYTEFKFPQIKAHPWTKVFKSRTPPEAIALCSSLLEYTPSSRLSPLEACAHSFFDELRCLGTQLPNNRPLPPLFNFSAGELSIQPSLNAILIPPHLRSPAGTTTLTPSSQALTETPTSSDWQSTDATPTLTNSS

Kd [1]: 820 nM | remaining binding at 10 µM (ABL1-nonphosphorylated; [2]): 94% | remaining binding at 100 µM (ABL1-nonphosphorylated; [3]): 49% | remaining binding at 100 µM (BRSK1): 100% | remaining binding at 100 µM (CLK2): 69% | remaining binding at 100 µM (DMPK2): 70% | remaining binding at 100 µM (EPHA1): 98% | remaining binding at 100 µM (EPHB3): 96% | remaining binding at 100 µM (GRK1): 67% | remaining binding at 100 µM (GSK3A): 100% | remaining binding at 100 µM (MARK2): 95% | remaining binding at 100 µM (NEK1): 100% | remaining binding at 10 µM (ROCK2; [2]): 49% | remaining binding at 100 µM (ROCK2; [3]): 4.9% | remaining binding at 100 µM (STK16): 80% | remaining binding at 100 µM (TEC): 74% | percentage control at 10 μM (KIT): < 30.0%
Compound: C[C@@H]1CC(=O)NN=C1c1ccc(NN=C(C#N)C#N)cc1 [levosimendan]
percentage control (RIOK3): RIOK3, the closest homolog of RIOK1, showed the similar binding strength as RIOK1
